Data taken from patent publication US7781465B2, “Therapeutic oxazolidinones and thiazolidinones” (Allergan, Inc., priority 2007, dated 2010).

Experiments:
EP2 [1] = biological target: T1, EP2 (Homo sapiens, UniProt P43116); test: EP2 flipr functional assay; type: cell-based
Source text: (§1) U.S. Patent Application Publication No. 20070129552, incorporated by reference herein, describes the methods used to obtain the in vitro data in the table below.

EP2 [2] = biological target: T1, EP2; test: EP2 binding (Ki)
Source text: as §1

EP4 [3] = biological target: T2, EP4 (Homo sapiens, UniProt P35408); test: EP4 flipr functional assay; type: cell-based
T2 sequence (P35408 whole entry): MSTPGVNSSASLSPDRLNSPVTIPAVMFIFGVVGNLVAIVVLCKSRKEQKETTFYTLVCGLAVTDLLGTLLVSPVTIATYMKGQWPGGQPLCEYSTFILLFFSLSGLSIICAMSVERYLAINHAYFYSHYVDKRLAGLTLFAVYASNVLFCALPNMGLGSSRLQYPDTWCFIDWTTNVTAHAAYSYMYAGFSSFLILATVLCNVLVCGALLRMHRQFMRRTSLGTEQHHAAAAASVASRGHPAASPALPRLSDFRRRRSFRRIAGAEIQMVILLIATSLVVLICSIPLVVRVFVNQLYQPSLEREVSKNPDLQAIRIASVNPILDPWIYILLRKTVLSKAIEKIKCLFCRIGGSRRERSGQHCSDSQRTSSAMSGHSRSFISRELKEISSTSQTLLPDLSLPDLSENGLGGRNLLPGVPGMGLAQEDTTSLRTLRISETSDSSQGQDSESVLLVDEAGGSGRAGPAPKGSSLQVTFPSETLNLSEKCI
Source text: as §1

EP4 [4] = biological target: T2, EP4; test: EP4 binding (Ki)
Source text: as §1

hEP3A = biological target: T3, hEP3A (Homo sapiens, UniProt P43115); test: Other receptors functional assay, hEP3A; type: cell-based
T3 sequence (P43115 1-390): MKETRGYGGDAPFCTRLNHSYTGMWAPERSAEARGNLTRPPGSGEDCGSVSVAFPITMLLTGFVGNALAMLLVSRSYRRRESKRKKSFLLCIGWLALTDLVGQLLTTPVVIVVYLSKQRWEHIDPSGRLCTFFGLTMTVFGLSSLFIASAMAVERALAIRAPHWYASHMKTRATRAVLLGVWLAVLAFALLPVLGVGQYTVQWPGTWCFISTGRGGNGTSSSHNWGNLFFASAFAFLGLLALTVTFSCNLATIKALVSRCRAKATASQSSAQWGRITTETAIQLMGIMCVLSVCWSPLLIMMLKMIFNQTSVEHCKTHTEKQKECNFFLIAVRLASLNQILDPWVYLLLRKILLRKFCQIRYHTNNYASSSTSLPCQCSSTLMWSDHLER
Source text: as §1

hDP = biological target: T4, hDP (Homo sapiens, UniProt Q13258); test: Other receptors functional assay, hDP; type: cell-based
T4 sequence (Q13258 1-359): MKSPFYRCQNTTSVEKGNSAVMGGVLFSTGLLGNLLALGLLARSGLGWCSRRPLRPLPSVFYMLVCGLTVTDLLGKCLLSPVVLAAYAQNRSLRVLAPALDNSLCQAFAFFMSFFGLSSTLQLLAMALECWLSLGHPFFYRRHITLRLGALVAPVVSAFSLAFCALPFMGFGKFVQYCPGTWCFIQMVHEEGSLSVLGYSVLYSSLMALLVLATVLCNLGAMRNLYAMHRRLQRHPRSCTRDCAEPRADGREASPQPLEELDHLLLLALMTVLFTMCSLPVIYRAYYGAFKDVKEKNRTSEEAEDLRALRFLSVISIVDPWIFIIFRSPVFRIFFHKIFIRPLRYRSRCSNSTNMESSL
Source text: as §1

normotensive dogs [5] = test: Intraocular pressure in normotensive dogs; type: in vivo, dog; conditions: 0.003%, once daily for 5 days, at 54 h
Protocol: (§2) U.S. Pat. No. 7,183,324 describes the methods used to obtain the in vitro results presented below.
(§3) Isopropyl 5-(3-((R)-3-(4-((S)-1-hydroxyhexyl)phenyl)-4-oxooxazolidin-2-yl)propyl)thiophene-2-carboxylate (12j) was tested in normotensive dogs at 0.003%, dosing once daily for 5 days. The maximum intraocular pressure (IOP) decrease from baseline was 5.4 mmHg (36%) at 54 h; the maximum ocular surface hyperemia (OSH) score was 1.75 at 50 h.

normotensive dogs [6] = test: Ocular surface hyperemia in normotensive dogs; type: in vivo, dog; conditions: 0.003%, once daily for 5 days, at 50 h
Protocol: as §2, §3

T1 sequence (P43116 whole entry): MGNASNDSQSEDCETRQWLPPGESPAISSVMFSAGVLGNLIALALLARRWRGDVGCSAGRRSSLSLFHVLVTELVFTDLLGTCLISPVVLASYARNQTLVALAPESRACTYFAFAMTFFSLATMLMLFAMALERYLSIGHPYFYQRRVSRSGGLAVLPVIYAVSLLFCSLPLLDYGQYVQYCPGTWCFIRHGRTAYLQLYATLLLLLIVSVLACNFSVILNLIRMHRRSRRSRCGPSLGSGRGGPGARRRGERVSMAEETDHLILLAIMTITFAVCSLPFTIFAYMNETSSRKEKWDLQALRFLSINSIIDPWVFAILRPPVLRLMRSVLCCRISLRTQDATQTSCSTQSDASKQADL

| SMILES | EC50 (EP2 [1]) [nM] | Ki (EP2 [2]) [nM] | EC50 (EP4 [3]) [µM] | Ki (EP4 [4]) [µM] | EC50 (hEP3A) [nM] | EC50 (hDP) [nM] | maximum ocular surface hyperemia (OSH) score (normotensive dogs [6]) | maximum intraocular pressure (IOP) decrease from baseline (normotensive dogs [5]) [mmHg] | maximum intraocular pressure (IOP) decrease from baseline, percent (normotensive dogs [5]) [%] |
| --- | --- | --- | --- | --- | --- | --- | --- | --- | --- |
| CCCCCC(O)c1ccc(N2C(=O)CSC2CCCc2ccc(C(=O)O)s2)cc1 (stereo not drawn) [Example 1, 5-(3-(3-(4-(1-hydroxyhexyl)phenyl)-4-oxo-thiazolidin-2-yl)propyl)thiophene-2-carboxylic acid] | 4400 | 17500 | > 10 | 1.46 | 8320 |  |  |  |  |
| CCCCC[C@H](O)c1ccc(N2C(=O)CO[C@H]2CCCc2ccc(C(=O)O)s2)cc1 (single isomer, unassigned) [Example 3] | 82 | 90 |  | > 10 | 268 | 1970 |  |  |  |
| CCCCC[C@H](O)c1ccc(N2C(=O)CO[C@@H]2CCCc2ccc(C(=O)OC(C)C)s2)cc1 [Example 12j, Isopropyl 5-(3-((R)-3-(4-((S)-1-hydroxyhexyl)phenyl)-4-oxooxazolidin-2-yl)propyl)thiophene-2-carboxylate] |  |  |  |  |  |  | 1.75 | 5.4 | 36 |
| O=C(O)c1ccc(CCCC2OCC(=O)N2c2ccccc2)s1 (stereo not drawn) [Example 9, 5-(3-(4-oxo-3-phenyloxazolidin-2-yl)propyl)thiophene-2-carboxylic acid] | 3080 | 680 |  | > 10 |  | > 10000 |  |  |  |

Second part, led by results:

| EC50 (EP2 [1]) [nM] | Ki (EP2 [2]) [nM] | EC50 (EP4 [3]) [µM] | Ki (EP4 [4]) [µM] | EC50 (hEP3A) [nM] | EC50 (hDP) [nM] | maximum ocular surface hyperemia (OSH) score (normotensive dogs [6]) | SMILES | maximum intraocular pressure (IOP) decrease from baseline (normotensive dogs [5]) [mmHg] | maximum intraocular pressure (IOP) decrease from baseline, percent (normotensive dogs [5]) [%] |
| --- | --- | --- | --- | --- | --- | --- | --- | --- | --- |
| 8 | 14 |  | > 10 | 11 | 213 |  | CCCCCC(O)c1ccc(N2C(=O)COC2CCCc2ccc(C(=O)O)s2)cc1 (stereo not drawn) [Example 2, 5-(3-(3-(4-(1-hydroxyhexyl)phenyl)-4-oxo-oxazolidin-2-yl)propyl)thiophene-2-carboxylic acid] |  |  |
| 1.2 | 7 |  | > 10 | 4 | 73 |  | CCCCC[C@H](O)c1ccc(N2C(=O)CO[C@@H]2CCCc2ccc(C(=O)O)s2)cc1 (single isomer, unassigned) [Example 4] |  |  |
| 37 | 3 | 12.6 | 2.13 | 237 | 656 |  | CCCCCCc1ccc(N2C(=O)COC2CCCc2ccc(C(=O)O)s2)cc1 (stereo not drawn) [Example 8, 5-(3-(3-(4-hexylphenyl)-4-oxooxazolidin-2-yl)propyl)thiophene-2-carboxylic acid] |  |  |
